One series has as its system Nostz Rats. Description: Oral antidiabetic activity in Nostz rats (non-insulin-dependent diabetes induced by neonatal steptozotocin); change in glycaemia. Type of series: in vivo. To be noted: Rattus norvegicus, blood sample two hours after the final administration, diabetic rats; for change in vivo at 20 mg/kg: 20 mg/kg/day; for change in vivo at 200 mg/kg: 200 mg/kg/day. Here is the method: Study of the Antidiabetic Activity in Nostz Rats
The oral antidiabetic activity of the compounds of the formula (I) was determined on an experimental model of non-insulin-dependent diabetes, induced in the rats with steptozotocin.
The model of non-insulin-dependent diabetes is obtained in the rats by means of a neonatal injection (on the day of birth) of steptozotocin.
The diabetic rats used are eight weeks old. The animals are housed, from the day of birth to the day of the experiment, in an animal house at a regulated temperature of 21 to 22° C. and subjected to a fixed cycle of light (from 7 a.m. to 7 p.m.) and darkness (from 7 p.m. to 7 a.m.). Their food consisted of a maintenance diet, and water and food were given “ad libitum”, with the exception of fasting two hours before the tests, during which period the food is removed (post-absorptive state).
The rats are treated orally for one (D1) or four (D4) days with the test product. Two hours after the final administration of the product and 30 minutes after the animals have been anaesthetised with pentobarbital sodium (Nembutal®), a 300 μl blood sample is taken from the end of the tail.
By way of example, results obtained are collated in Table 2.

Where [1] appears, read: 24 h, one day of treatment (D1), read-out: percentage change in the glycaemia on D1 relative to D0.
Where [2] appears, read: 96 h, four days of treatment (D4), read-out: percentage change in the glycaemia on D4 relative to D0.

Where a name gives a salt, the structure may show the parent alone. Read-outs that look alike come from different tables or passages of the source.

On to `COc1cc2c(cc1OC)CC(CNC(=N)N)C2` [Compound 11], for which the change in vivo at 20 mg/kg is -1% with Nostz Rats (setting [1]) and -8% in the series on Nostz Rats (setting [2]). The figures for the change in vivo at 200 mg/kg with Nostz Rats (setting [1]) and with Nostz Rats (setting [2]) were -8% and -14%, respectively.

Usually melting point stands for the temperature, or range, at which the solid turns liquid. In the case of `COc1ccc2c(c1)cc(CNC(=N)N)n2C` (as salt: sulfate) [Compound 12], the melting point was in the range of 233 to 235 °C.

Regarding `N=C(N)NCc1nc2ccccc2s1` (as salt: hydrochloride) [Compound 5], the melting point was 196 to 198 °C.

`CN(CC1=Cc2ccccc2C1)C(=N)N` (as salt: hydrochloride) [Compound 16]: the melting point was in the range of 209 to 211 °C.

Consider `COc1ccc2[nH]c(CNC(=N)N)cc2c1` [Compound 13], for which the change in vivo at 200 mg/kg is -16% in the series on Nostz Rats (setting [1]) and -26% with Nostz Rats (setting [2]).

As to `N=C(N)NCc1nc2ccccc2s1` [Compound 5], in the series on Nostz Rats (setting [1]), the change in vivo at 20 mg/kg was -18% and the change in vivo at 200 mg/kg is -30%. For the same molecule, in the series on Nostz Rats (setting [2]), the change in vivo at 20 mg/kg was -3% and the change in vivo at 200 mg/kg is -26%.

For `CN(Cc1nc2ccccc2[nH]1)C(=N)N` (as salt: hydrochloride) [Compound 6], the melting point fell in the range of 253 to 255 °C.

For the molecule `N=C(N)NCC1Cc2ccccc2N1` (centres unmarked) [Compound 8], in the series with Nostz Rats (setting [1]), the change in vivo at 20 mg/kg was -7% and the change in vivo at 200 mg/kg is -10%. Besides, in the series on Nostz Rats (setting [2]), the change in vivo at 20 mg/kg was -12% and the change in vivo at 200 mg/kg is -9%.

`N=C(N)NCC1Cc2ccccc2N1` (centres unmarked) (as salt: hemisulfate) [Compound 8] showed a melting point of 189 to 191 °C.

In turn, `N=C(N)NCC1Cc2ccccc2C1` (as salt: sulfate) [Compound 3, 2-(aminoiminomethylamino)methylindane sulfate] came in with a melting point of 231 to 233 °C.

The molecule `Cn1c(CNC(=N)N)cc2cc(F)ccc21` (as salt: hydrochloride) [Compound 14] registered a melting point of 181 to 183 °C.

In the case of `N=C(N)NCc1cc2ccccc2o1` (as salt: sulfate) [Compound 15], the melting point was in the range of 244 to 247 °C.

On to `CN(Cc1nc2ccccc2[nH]1)C(=N)N` [Compound 6], for which the results for the change in vivo at 20 mg/kg in the series with Nostz Rats (setting [1]) and with Nostz Rats (setting [2]) were 3% and 0%, respectively. Moreover, the change in vivo at 200 mg/kg was -6% with Nostz Rats (setting [1]) and -16% in the series with Nostz Rats (setting [2]).

Consider `COc1ccc2[nH]c(CNC(=N)N)cc2c1` (as salt: sulfate) [Compound 13], for which the melting point lay within 213 to 215 °C.

As to `COc1ccc2c(c1)cc(CNC(=N)N)n2C` [Compound 12], the change in vivo at 200 mg/kg in the series with Nostz Rats (setting [1]) was -22%; with Nostz Rats (setting [2]) it was -26%.

Regarding `N=C(N)NCc1cc2ccccc2[nH]1` [Compound 7], in the series on Nostz Rats (setting [1]), the change in vivo at 20 mg/kg was -5% and the change in vivo at 200 mg/kg is -19%. Further, in the series with Nostz Rats (setting [2]), the change in vivo at 20 mg/kg is -9% and the change in vivo at 200 mg/kg is -28%.

`CN(Cc1nc2ccccc2s1)C(=N)N` (as salt: hydrochloride) [Compound 1, 2-(aminoiminomethyl(methylamino)methyl)-benzothiazole hydrochloride] gave a melting point of 203 to 205 °C.

Consider `N=C(N)NCc1nc2ccccc2[nH]1` [Compound 2, 2-(aminoiminomethylamino)methylbenzimidazole hydrochloride], for which, in the series with Nostz Rats (setting [1]), the change in vivo at 20 mg/kg was -17% and the change in vivo at 200 mg/kg was -10%. Besides, in the series on Nostz Rats (setting [2]), the change in vivo at 20 mg/kg was -13% and the change in vivo at 200 mg/kg is -25%.

For the molecule `N=C(N)NCC1Cc2ccccc2C1` [Compound 3, 2-(aminoiminomethylamino)methylindane sulfate], in the series with Nostz Rats (setting [1]), the change in vivo at 20 mg/kg stood at 2% and the change in vivo at 200 mg/kg is -14%. In the series on Nostz Rats (setting [2]), the change in vivo at 20 mg/kg was -10% and the change in vivo at 200 mg/kg was -29%.

The molecule `N=C(N)NCC1Cc2ccccc2O1` (centres unmarked) [Compound 9] yielded a melting point of 139 to 141 °C.

Turning to `CN(Cc1nc2ccccc2s1)C(=N)N` [Compound 1, 2-(aminoiminomethyl(methylamino)methyl)-benzothiazole hydrochloride], in the series on Nostz Rats (setting [1]), the change in vivo at 20 mg/kg was determined as 5% and the change in vivo at 200 mg/kg is -9%. Further, in the series with Nostz Rats (setting [2]), the change in vivo at 20 mg/kg is -4% and the change in vivo at 200 mg/kg is -23%.

`N=C(N)NCC1Cc2cc(F)c(F)cc2C1` (as salt: sulfate) [Compound 17]: the melting point is over 250 °C.

In the case of `N=C(N)NCc1nc2ccccc2[nH]1` (as salt: hydrochloride) [Compound 2, 2-(aminoiminomethylamino)methylbenzimidazole hydrochloride], the melting point fell in the range of 171 to 173 °C.

Consider `N=C(N)NCC1Cc2ccccc2S1` (centres unmarked) [Compound 10], for which the melting point lay within 187 to 189 °C. In addition, in the series on Nostz Rats (setting [1]), the change in vivo at 20 mg/kg was -3% and the change in vivo at 200 mg/kg was -21%. For the same molecule, in the series with Nostz Rats (setting [2]), the change in vivo at 20 mg/kg was -5% and the change in vivo at 200 mg/kg is -25%.

For the molecule `N=C(N)NCc1cc2ccccc2o1` [Compound 15], in the series on Nostz Rats (setting [1]), the change in vivo at 20 mg/kg is -23% and the change in vivo at 200 mg/kg is -29%. Further, in the series on Nostz Rats (setting [2]), the change in vivo at 20 mg/kg is -28% and the change in vivo at 200 mg/kg was -31%.

On to `COc1cc2c(cc1OC)CC(CNC(=N)N)C2` (as salt: sulfate) [Compound 11], for which the melting point was in the range of 191 to 193 °C.
